Data on 5 compounds can be found in patent US20240269320A1, “EXTENDED RELEASE DRUG DELIVERY SYSTEM FOR OCULAR DRUGS AND METHODS OF USE” (Eyedea Bio, LLC, priority 2021, published 2024).

Data set [1] is described as follows: In vivo kinetics after intravitreal injection of bolus implant in rabbit eyes (LC/MS, retina). The conditions noted are these: for residual drug in recovered bolus/implants: bolus formulation of native peptide.
The next data set concerns carboxyesterase. Briefly: Cleavage of prodrug ester bond by carboxyesterase in vitro. The data set is classed as in vitro ADME. Particulars: 37° C., carboxyesterase 0.1 μg/mL. The protocol: One specific example of EY005-prodrug includes EY005-stearyl (depicted in FIG. 27A), wherein EY005 is linked via ester bond to stearyl alcohol, one member from the group of long-chain saturated fatty alcohols. On cleavage of the ester bond, the prodrug EY005-stearyl releases the EY005 MTT. […] Upon addition of EY005-stearyl prodrug to phosphate-buffered saline solution at 37° C. without esterase, the ester bond of the EY005-stearyl prodrug cleaves more slowly (˜36 hours) by hydrolysis (FIG. 28C).
EY005-stearyl was incubated at 37° C. in vitro with carboxyesterase (0.1 μg/mL), to simulate the ocular physiologic environment and the type of esterase that is readily abundant within the vitreous. […] Upon addition of EY005-stearyl prodrug to phosphate-buffered saline solution at 37° C. without esterase, the ester bond of the EY005-stearyl prodrug cleaves more slowly by hydrolysis (FIG. 28C).
In some examples of prodrugs, cleavage and release of the free API can be assessed in an in vitro release assay, wherein the prodrug is incubated in a solution containing carboxyesterase (or other natural or synthetic esterase), isolated vitreous recovered from animal (e.g., pig, rabbit, etc.), or isolated vitreous recovered from human donor, at […], […], or other temperatures. […]

Data set [2] is described as follows: In vitro to in vivo correlation of fluocinolone acetonide release, rabbit eyes. Particulars: formulations in multiphasic colloidal suspension. The protocol: Properties of Kd and binding capacity were calculated for each FA-complex particulate, in dispersal medium (FIG. 15). […] FIG. 16B illustrates other formulations, wherein varying the ratio of drug-complex particulates altered the kinetics of release, as the proportion of complexation agent (KET) with higher avidity (Kd) was increased across the formulations, for a given payload of FA.
The depicted curves reflect in vitro release profiles, while the individual colored points, circled, represent in vivo release data from rabbit eyes.

For data set [3] the following is noted: flowable bolus implant, multiple time points.
A short description of data set [4]: Sunitinib malate bio-erodible tube implant, drug levels in retina tissue of rabbits. The data set is classed as in vivo, rabbit. The text has this: In another example, formulations of the hydrophilic small molecule sunitinib malate in the multiphasic colloidal suspension were developed (FIGS. 20-22). […] Complexation of sunitinib to selected complexation agents was visually confirmed by admixture and pulldown of sunitinib-complex particulates, which was confirmed since by the yellow-orange color of particulates (sunitinib has orange coloration) (FIG. 21).
In another example, formulations of the hydrophilic small molecule sunitinib malate in the multiphasic colloidal suspension were developed. […] Complexation of sunitinib to selected complexation agents was visually confirmed by admixture and pulldown of sunitinib-complex particulates, which was confirmed since by the yellow-orange color of particulates (sunitinib has orange coloration). Formulations of sunitinib with two-phase release kinetics in a bio-erodible tube formulation of sunitinib multiphasic colloidal suspension were designed and manufactured. […] Alteration of the ratio of sunitinib-complex particulates reduced the amount of drug released during initial burst and lowered the steady state release.

Structures are written as SMILES. “Also recorded” adds a separate entry of the source. Read-outs that look alike come from different tables or passages of the source. Non-standard residues stand in square brackets, D forms with d. Residues, ends and D or L forms follow the SMILES beside them. *: point of attachment. Dmt = Cc1cc(O)cc(C)c1C[C@H](N)C(=O)O; X1 = CCCCCCCCCCCCCCCCCCO* Some results are limits rather than exact numbers.

As for `Cc1cc(O)cc(C)c1C[C@H](NC(=O)[C@H](N)CCCNC(=N)N)C(=O)N[C@@H](CCCCN)C(=O)N[C@@H](Cc1ccccc1)C(=O)O` [EY005, H-d-Arg-DMT-Lys-Phe] (H-[dR][Dmt]KF-OH; C-terminus assumed), in data set [1] (bolus formulation of native API administered into the vitreous), the “time beyond which no detectable tissue levels” value was at most 21 days. For the same compound, the “residual drug in recovered bolus/implants” value in data set [1] (rabbits, listed as EY005 native peptide) is on record as “Recovered implants contained no EY005 native peptide”; in data set [1] (rabbits, listed as native API), “no residual drug in the recovered bolus”. For the same compound, in data set [1] (by week 3.5, identical bolus formulation, rabbits), the tissue concentrations result is “nearly undetectable”.

With `CCCCCCCCCCCCCCCCCCOC(=O)[C@H](Cc1ccccc1)NC(=O)[C@H](CCCCN)NC(=O)[C@H](Cc1c(C)cc(O)cc1C)NC(=O)[C@H](N)CCCNC(=N)N` [EY005-stearyl, H-d-Arg-DMT-Lys-Phe(O)-stearyl] (H-[dR][Dmt]KF-X1), in the data set on carboxyesterase, the “cleavage of the prodrug ester bond, releasing EY005 (HPLC)” value is reported as “rapid cleavage of the prodrug ester bond”.

As for `CC1(C)O[C@@H]2C[C@H]3[C@@H]4C[C@H](F)C5=CC(=O)C=C[C@]5(C)[C@@]4(F)[C@@H](O)C[C@]3(C)[C@]2(C(=O)CO)O1` [FA, fluocinolone acetonide], the “correlation between drug release in vitro and in vivo (retina tissue levels)” value in data set [2] is recorded as “strong correlation”; in data set [2] (listed as fluocinolone acetonide), “good in vitro to in vivo correlation”.

With `CNC(=O)c1ccccc1Sc1ccc2c(/C=C/c3ccccn3)n[nH]c2c1` [axitinib], the “drug levels in retina tissue” value in data set [3] is reported as “detectable drug levels in retina tissue”.

For the compound `CCN(CC)CCNC(=O)c1c(C)[nH]c(/C=C2\C(=O)Nc3ccc(F)cc32)c1C` [sunitinib malate], the “release kinetics (pharmacokinetics) and tissue levels of tube formulation” value in data set [4] (bio-erodible tube formulation) is “produced desired tissue levels and durability of release; also recorded: two-phase release with high initial burst, followed by steady-state release”. Also, the “drug levels in retina tissue” value in data set [4] (low and high dose implants, multiple time points) is given as “detectable drug levels in retina tissue”.
